Experimental data: patent US7393857B2, “Use of 5-HT3 receptor antagonists for treating musculoskeletal diseases” (Novasearch AG, priority 1999, dated 2008)

Key:
Type in all cases: in vivo, human
[1] = system: patient with repeated exudation from the knee joint consequential to damage to the meniscus; test: Clinical case: repeated knee joint exudation after meniscus damage, intra-articular tropisetron (Example 2, first patient); conditions: 2 mg intra-articularly
Method: Prior to the trial the patient received injections of glucocorticoid. The patient receives an injection of 2 mg of tropisetron administered intra-articularly.

[2] = system: patient with Morbus Still; test: Left knee joint irritation (Morbus Still), intraarticular injection (Example 4c); conditions: for knee joint circumference: before 44 cm; for pain under strain (VAS): before 70; for pain at rest in the VAS (0-100): before 98
Text: (§1) Pain is subsequently determined on a visual analogue scale (VAS) that goes from 0 mm (no pain) to 100 mm (strongest pain). • 4a) Enthesiopathy (Insertion Tendopathy) (with infiltration): • (i) patient; Diagnosis: epicondylitis. Rest pain before local injection of tropisetron 30 mm, 7 days later 0 mm. • (ii) patient, diagnosis: periarthropathia humeroscapularis. Rest pain before local injection of tropisetron 85 mm, 7 days after local injection 45 mm. • (iii) Patient, diagnosis: epicondylitis. Rest pain before local injection of tropisetron 35 mm, 7 days thereafter 0 mm. • 4b) Rheumatoid arthritis (intraarticular injection): • (i) patient.
Patient, Morbus Still diagnosed 1.5 years ago. Despite basic treatment with 15 mg methotrexat per week and 20 mg prednisolone per day, the patient suffers from swelling and overheating of the left knee joint for the first time in February 1999. Pain at rest in the VAS 98 (0-100), pain under strain 70. Obvious articular effusion. Knee joint circumference 44 cm, straightening/bending 0°-10°, 115°. 24 hours after an intraarticular injection with 2 mg tropisetron pain at rest in the Visual Analog Scale (VAS) 0, pain under strain 70. […] 7 days later pain at rest in the VAS 0, pain under strain 57, straightening/bending 0°,0°,130°, knee joint circumference 40.5 cm. • 4e) Gonarthrosis: […]

[3] = system: patients exhibiting implant/insertion tendopathy; test: Clinical trial: implant/insertion tendopathy, local injection of tropisetron (Example 3); conditions: 2 mg injected once in the area of greatest pain
Method: The condition treated results in the case of the first patient from epicondylitis radialis, in the case of the second patient from insertion tendopathy in the area of insertion of the deltoid muscle and, in the case of the third patient from an enthesiopathy of the Malleolus lateralis. In all three cases, tropisetron is injected once at a dosage of 2 mg in the area of greatest pain, directly into the tissues. In all three cases severity of pain decreases within a period of 60 min. and virtually complete remittal is achieved within 24 hrs., indicating remission from disease remission.

[4] = system: patients with epicondylitis or periarthropathia humeroscapularis; test: Enthesiopathy (insertion tendopathy) with infiltration, pain on VAS (Example 4a); conditions: 7 days after local injection
Text: as §1

[5] = system: patient with cervical syndrome; test: Spinal syndrome: cervical syndrome, i.v. administration (Examples 5 and 6(i)); conditions: 2 mg i.v., before injection 68 mm
Text: as §1
Patient, diagnosis: cervical syndrome. Before injection of 2 mg tropisetron 68 mm rest pain, 24 hours later 35 mm, at day 7 18 mm.
Patient, diagnosis: cervical syndrome. Before i.v. injection of 2 mg tropisetron 68 mm rest pain, 24 hours later 35 mm, at day 7 18 mm. • (ii) Lumbalgia: […]

[6] = system: patient with activated gonarthritis with effusion; test: Gonarthrosis, intra-articular injection (Example 4e); conditions: intra-articular 2 mg; for pain at rest on the visual analog scale for pain (0-100): before 43
Text: as §1
Patient has activated gonarthritis with effusion for 2 months. Only short-term pain reduction by means of non-steroidal antiphlogistics could be achieved. Following an intra-articular injection with 2 mg tropisetron, pain at rest after 24 hours on the visual analog scale for pain (0-100) sinks from 43 to 25, after 2 days to 13, after 7 days to 10 and in a follow-up check after 17 days to 4. The analog values for pain under strain are 75, 45, 10 and 10, respectively. The effusion is gone after 7 days, as is the overheating of the knee joint.

[7] = system: patients exhibiting rheumatoid arthritis and severe consequential synovial inflammation; test: Clinical trial: synovial inflammation/synovitis in rheumatoid arthritis, intraarticular tropisetron (Example 1); conditions: 2 mg intraarticularly once
[8] = system: patient with damage to the meniscus and arthritic change leading to synovial irritation with knee joint effusion; test: Clinical case: synovial irritation with knee joint effusion, i.v. tropisetron (Example 2, second patient)
Method: […] 2 mg doses of tropisetron are administered i.v. over a period of 17 days with 15 injections, one each day with a 2 days pause in therapy.

[9] = 24 hours after intraarticular injection of 2 mg
[10] = 7 days later, intraarticular 2 mg

SMILES: CN1[C@@H]2CC[C@H]1C[C@@H](OC(=O)c1c[nH]c3ccccc13)C2 [tropisetron, Indol-3-yl-carboxylic acid-endo-8-methyl-8-aza-bicyclo[3,2,1]-oct-3-yl-ester]
- pain ([1]; after 45 min.): marked reduction of pain
- effusion from the knee joint ([1]; after 5 hours): major reduction of effusion
- symptoms ([1]; without further therapy, observation period of 5 days): free of symptoms
- joint swelling and effusion [2, 9]: significant reduction of joint swelling and effusion
- knee joint circumference [2, 9]: 41 cm
- pain under strain (VAS) [2, 9]: 70
- pain at rest in the VAS (0-100) ([2]; 24 hours after intraarticular injection of 2 mg, on methotrexat and prednisolone): 0
- knee joint circumference [2, 10]: 40.5 cm
- pain under strain (VAS) [2, 10]: 57
- pain at rest in the VAS (0-100) [2, 10]: 0
- further improvements after injection [3]: increase of strength and of flexibility of the affected body part
- period within which severity of pain decreases ([3]; all three patients): ≤ 60 min
- time within which virtually complete remittal is achieved ([3]; all three patients): ≤ 24 h
- rest pain (VAS) ([4]; patient (i), epicondylitis, before injection 30 mm): 0 mm
- rest pain (VAS) ([4]; patient (ii), periarthropathia humeroscapularis, before injection 85 mm): 45 mm
- rest pain (VAS) ([4]; patient (iii), epicondylitis, before injection 35 mm): 0 mm
- rest pain (VAS) ([5]; 24 hours later): 35 mm
- rest pain (VAS) ([5]; at day 7): 18 mm
- pain at rest on the visual analog scale for pain (0-100) ([6]; after 24 hours): 25
- pain at rest on the visual analog scale for pain (0-100) ([6]; after 2 days): 13
- effusion ([6]; after 7 days): gone
- overheating of the knee joint ([6]; after 7 days): gone
- pain at rest on the visual analog scale for pain (0-100) ([6]; after 7 days): 10
- pain at rest on the visual analog scale for pain (0-100) ([6]; follow-up check after 17 days): 4
- pain under strain, visual analog scale (0-100) ([6]; fourth of four printed values, time point unclear (7 or 17 days)): 10
- pain under strain, visual analog scale (0-100) ([6]; second of four printed values, presumably after 24 hours, first value (before) 75): 45
- pain under strain, visual analog scale (0-100) ([6]; third of four printed values, time point unclear (2 or 7 days)): 10
- symptoms ([7]; both patients examined over one week following treatment): free of symptoms
- remission from pain ([7]; two patients (shoulder joint, knee joint), within a few hours): almost complete remission from pain
- movement of the knee joint ([8]; 2 mg i.v. daily): clearly improved
- time until exudation from the knee joint is completely inhibited ([8]; 2 mg i.v. daily, without any other medication): ≤ 8 days
- symptoms ([8]; 2 mg i.v., 15 injections over 17 days, following continuation of injections): virtually free of symptoms
- persistence of improvement in condition after completion of therapy ([8]; 2 mg i.v., 15 injections over 17 days, observation following completion of therapy): continues over a further 7 days observation
- pain ([8]; 2 mg i.v., 24 hours after the first i.v. injection): significant improvement of pain
